Data published in patent US7553966B2, “Glucocorticoid mimetics, methods of making them, pharmaceutical compositions, and uses thereof” (Boehringer Ingelheim Pharmaceuticals, Inc., priority 2002, dated 2009).

How the values were obtained:
[1] = system: glucocorticoid receptor; test: Glucocorticoid Receptor Cell Assays (agonist activity in one or more of the above assays); format: cell-based; conditions: qualitative statement; assay not specified
Method: B. Glucocorticoid Receptor Cell Assays
1. Induction of Aromatase in Fibroblasts (Cell Assay for Transactivation)
Dexamethasone, a synthetic ligand to the glucocorticoid receptor (GR), induces expression of aromatase in human foreskin fibroblast cells. The activity of aromatase is measured by the conversion of testosterone to estradiol in culture media.
On the day of the experiment, the media in the wells is replaced with fresh media. Cells are treated with test compounds to final concentrations of 10^−5 M to 10^−8 M, and testosterone to a final concentration of 300 ng/mL. Each well has a total volume of 100 μL. Samples are made in duplicates. Control wells include: (a) wells that receive testosterone only, and (b) wells that receive testosterone plus 2 μM of dexamethasone to provide maximum induction of aromatase. Plates are incubated at 37° C. overnight (15 to 18 hours), and supernatants are harvested at the end of incubation. […] The amount of estradiol is inversely proportional to the ELISA signals in each well. The extent of aromatase induction by test compounds is expressed as a relative percentage to dexamethasone. EC50 values of test compounds are derived by non-linear curve fitting.
2. Inhibition of IL-6 Production in Fibroblasts (Cell Assay for Transrepression)
Human foreskin fibroblast cells produce IL-6 in response to stimulation by pro-inflammatory cytokine IL-1.
On the next day, media in the wells is replaced with fresh media. Cells are treated with IL-1 (rhIL-1α, R&D Systems Cat. No. 200-LA) to a final concentration of 1 ng/mL, and with test compounds to final concentrations of 10^−5 M to 10^−8 M, in a total volume of 200 μL per well. Samples are done in duplicates. […] Positive control wells receive IL-1 only and represent maximum (or 100%) amount of IL-6 production. Plates are incubated at 37° C. overnight (15 to 18 hours), and supernatants are harvested at the end of incubation. IL-6 levels in the supernatants are determined by the ELISA kits for IL-6 (MedSystems Diagnostics GmbH, Vienna, Austria, Cat. No. BMS213TEN) according to manufacture's instructions. The extent of inhibition of IL-6 by test compounds is expressed in percentage relative to positive controls. IC50 values of test compounds are derived by non-linear curve fitting.
Evaluation of agonist or antagonist activity of compounds binding to the glucocorticoid receptor may be determined by any of the assays.
3. Modulation of Tyrosine Aminotransferase (TAT) Induction in Rat Hepatoma Cells
Testing of compounds for agonist or antagonist activity in induction of tyrosine aminotransferase (TAT) in rat hepatoma cells.
H4-II-E-C3 cells were incubated overnight in 96 well plates (20,000 cells/100 μL/well) in MEM medium containing 10% heat inactivated FBS and 1% nonessential amino acids. On the next day, cells were stimulated with the indicated concentrations of dexamethasone or test compound (dissolved in DMSO, final DMSO concentration 0.2%) for 18 hours. Control cells were treated with 0.2% DMSO. After 18 hours, the cells were lysed in a buffer containing 0.1% Triton X-100 and the TAT activity was measured in a photometric assay using tyrosine and alpha-ketoglutarate as substrates.
For measuring antagonist activity, the hepatoma cells were pre-stimulated by addition of dexamethasone (concentration ranges from 3×10^−9 M to 3×10^−8 M) shortly before the test compound was applied to the cells.
4. Modulation of MMTV-Luc Induction in HeLa Cells
Testing of compounds for agonist or antagonist activity in stimulation of MMTV-(mouse mammary tumor virus) promoter in HeLa cells.
Cells were cultured overnight in DMEM medium without phenol red, supplemented with 3% CCS (charcoal treated calf serum) and then transferred to 96 well plates (15,000 cells/100 μL/well).

[2] = molecular target: T1, human glucocorticoid receptor (GR) complex (Homo sapiens, UniProt P04150); test: Glucocorticoid Receptor Competitive Binding Assay (fluorescence polarization, TAMRA-labeled dexamethasone probe); conditions: qualitative statement; competition with TAMRA-labeled dexamethasone
T1 construct: made in house; host or cells: insect expression system (baculovirus lysate)
T1 sequence (P04150 1-777): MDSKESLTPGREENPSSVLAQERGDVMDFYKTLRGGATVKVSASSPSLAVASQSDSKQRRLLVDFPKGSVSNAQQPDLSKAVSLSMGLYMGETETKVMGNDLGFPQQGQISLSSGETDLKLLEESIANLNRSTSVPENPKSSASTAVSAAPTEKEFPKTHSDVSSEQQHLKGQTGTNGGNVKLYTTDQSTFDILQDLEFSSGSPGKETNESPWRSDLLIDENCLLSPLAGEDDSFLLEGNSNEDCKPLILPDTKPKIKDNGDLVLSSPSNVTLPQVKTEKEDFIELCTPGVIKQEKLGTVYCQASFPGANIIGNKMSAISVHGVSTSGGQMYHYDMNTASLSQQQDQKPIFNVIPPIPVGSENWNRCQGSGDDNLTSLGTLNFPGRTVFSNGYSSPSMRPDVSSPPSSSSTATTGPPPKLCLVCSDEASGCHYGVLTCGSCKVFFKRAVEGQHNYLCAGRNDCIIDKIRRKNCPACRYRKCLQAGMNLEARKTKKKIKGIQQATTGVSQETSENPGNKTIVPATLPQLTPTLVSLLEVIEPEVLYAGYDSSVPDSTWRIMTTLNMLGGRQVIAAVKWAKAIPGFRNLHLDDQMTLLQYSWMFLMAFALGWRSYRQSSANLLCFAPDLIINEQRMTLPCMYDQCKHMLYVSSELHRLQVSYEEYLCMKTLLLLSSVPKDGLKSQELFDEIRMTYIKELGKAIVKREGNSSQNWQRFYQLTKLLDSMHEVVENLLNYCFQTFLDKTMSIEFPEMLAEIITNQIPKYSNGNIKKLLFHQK
In short: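 Competition with TAMRA-dexamethasone for a human GR complex expressed in insect cells, read by fluorescence polarization. Buffer was 10 mM TES, 50 mM KCl, 20 mM Na2MoO4, 1.5 mM EDTA, 0.04% CHAPS, 10% glycerol, 1 mM DTT, pH 7.4.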

Compound | activity as agonists of the glucocorticoid receptor function in one or more of the above assays [1] | activity in the GR binding assay [2]
CC(C)(CC(O)(Cc1cc2cc(C#N)ccc2[nH]1)C(F)(F)F)c1ccccc1 (stereo not shown) [2-(2-Hydroxy-4-methyl-4-phenyl-2-trifluoromethylpentyl)-1H-indole-5-carbonitrile] | potent agonists | potent activity
CC(C)(CC(O)(Cc1ccnc2ccccc12)C(F)(F)F)c1ccccc1O (stereo not shown) [2-(4,4,4-Trifluoro-3-hydroxy-1,1-dimethyl-3-quinolin-4-ylmethylbutyl)phenol] | potent agonists | potent activity
COc1ccc(F)cc1C(C)(C)CC(O)(Cc1cc2ccncc2[nH]1)C1CC1 (stereo not shown) [2-Cyclopropyl-4-(5-fluoro-2-methoxyphenyl)-4-methyl-1-(1H-pyrrolo[2,3-c]pyridin-2-yl)pentan-2-ol] | agonists | potent activity
COc1cccc(C(C)(C)CC(O)(Cc2cc3c(C)cc(C#N)cc3[nH]2)C(F)(F)F)c1 (stereo not shown) [2-[2-Hydroxy-4-(3-methoxyphenyl)-4-methyl-2-trifluoromethylpentyl]-4-methyl-1H-indole-6-carbonitrile] | potent agonists | potent activity
Cc1cc(C)c2[nH]c(CC(O)(CC(C)(C)c3cc(F)ccc3O)C(F)(F)F)nc2c1 (stereo not shown) [2-[3-(5,7-Dimethyl-1H-benzoimidazol-2-ylmethyl)-4,4,4-trifluoro-3-hydroxy-1,1-dimethylbutyl]-4-fluorophenol] | potent agonists | potent activity
Cc1cc(C#N)cc2[nH]c(CC(O)(CC(C)(C)c3cccc4c3OCC4)C(F)(F)F)cc12 (stereo not shown) [2-[4-(2,3-Dihydrobenzofuran-7-yl)-2-hydroxy-4-methyl-2-trifluoromethylpentyl]-4-methyl-1H-indole-6-carbonitrile] | potent agonists | potent activity
Cc1cc(C#N)cc2[nH]c(CC(O)(CC(C)(C)c3cccc(F)c3)C(F)(F)F)cc12 (stereo not shown) [2-[4-(3-Fluorophenyl)-2-hydroxy-4-methyl-2-trifluoromethylpentyl]-4-methyl-1H-indole-6-carbonitrile] | potent agonists | potent activity
COc1cc(F)ccc1C(C)(C)CC(O)(Cc1[nH]c2ccccc2c1C#N)C(F)(F)F (stereo not shown) [2-[4-(4-Fluoro-2-methoxyphenyl)-2-hydroxy-4-methyl-2-trifluoromethyl-pentyl]-1H-indole-3-carbonitrile] | potent agonists | potent activity
COc1cc(F)ccc1C(C)(C)CC(O)(Cc1cc2cc(C#N)ccc2[nH]1)C(F)(F)F (stereo not shown) [2-[4-(4-Fluoro-2-methoxyphenyl)-2-hydroxy-4-methyl-2-trifluoromethylpentyl]-1H-indole-5-carbonitrile] | potent agonists | potent activity
CC(C)(CC(O)(Cc1cc2cc(C#N)ccc2[nH]1)C(F)(F)F)c1ccc(F)cc1 (stereo not shown) [2-[4-(4-Fluorophenyl)-2-hydroxy-4-methyl-2-trifluoromethylpentyl]-1H-indole-5-carbonitrile] | potent agonists | potent activity
Cc1cc(C#N)cc2[nH]c(CC(O)(CC(C)(C)c3ccc(F)cc3)C(F)(F)F)cc12 (stereo not shown) [2-[4-(4-Fluorophenyl)-2-hydroxy-4-methyl-2-trifluoromethylpentyl]-4-methyl-1H-indole-6-carbonitrile] | potent agonists | potent activity
CC(C)(CC(O)(Cc1[nH]c2ccccc2c1C#N)C(F)(F)F)c1cc(Br)cc2c1OCC2 (stereo not shown) [2-[4-(5-Bromo-2,3-dihydrobenzofuran-7-yl)-2-hydroxy-4-methyl-2-trifluoromethylpentyl]-1H-indole-3-carbonitrile] | potent agonists | potent activity
CC(C)(CC(O)(Cc1[nH]c2ccccc2c1C#N)C(F)(F)F)c1cc(F)cc2c1OCC2 (stereo not shown) [2-[4-(5-Fluoro-2,3-dihydrobenzofuran-7-yl)-2-hydroxy-4-methyl-2-trifluoromethylpentyl]-1H-indole-3-carbonitrile] | potent agonists | potent activity
Cc1cc(C#N)cc2[nH]c(CC(O)(CC(C)(C)c3cc(F)ccc3O)C(F)(F)F)cc12 (stereo not shown) [2-[4-(5-Fluoro-2-hydroxyphenyl)-2-hydroxy-4-methyl-2-trifluoromethylpentyl]-4-methyl-1H-indole-6-carbonitrile] | potent agonists | potent activity
COc1ccc(F)cc1C(C)(C)CC(O)(Cc1[nH]c2ccccc2c1C#N)C(F)(F)F (stereo not shown) [2-[4-(5-Fluoro-2-methoxyphenyl)-2-hydroxy-4-methyl-2-trifluoromethylpentyl]-1H-indole-3-carbonitrile] | potent agonists | potent activity
COc1ccc(F)cc1C(C)(C)CC(O)(Cc1cc2cc(C#N)ccc2[nH]1)C(F)(F)F (stereo not shown) [2-[4-(5-Fluoro-2-methoxyphenyl)-2-hydroxy-4-methyl-2-trifluoromethylpentyl]-1H-indole-5-carbonitrile] | potent agonists | potent activity
COc1ccc(F)cc1C(C)(C)CC(O)(Cc1cc2c(C)cc(C#N)cc2[nH]1)C(F)(F)F (stereo not shown) [2-[4-(5-Fluoro-2-methoxyphenyl)-2-hydroxy-4-methyl-2-trifluoromethylpentyl]-4-methyl-1H-indole-6-carbonitrile] | potent agonists | potent activity
